The results in this text go back to patent publication US20110039762A1, “TARGETED ANTIMICROBIAL MOIETIES” (C3 JIAN, INC., priority 2009, published 2011).

Assay [1] concerns microorganisms. In words: Peptides having multiple activities (targeting/binding, antimicrobial, growth or phenotype altering). From the text: In certain embodiments, peptides described herein can have multiple activities. Thus for example, a peptide can have both binding/targeting activity and antimicrobial activity. Such peptides can be used, e.g., in a chimeric construct, for any or all of these properties. Thus, for example, a peptide designated “B” in Table 8 can be used as a targeting peptide. If it is also designated G or M it can also be used for antimicrobial activity.

Assay [2] concerns M. luteus. The assay is described as follows: Kill or inhibit growth/proliferation; morphology, biofilm and growth disruption (Tables 5, 6). Note: test concentration or dose not given here. The format is cell-based, Micrococcus luteus. Also on record: key: A: Peptide aggregates; B: Less hyphal formation; Clumps; Diffuse clumps and small polyps; F: Diffuse growth; H: Thin; I: Growth inhibition; Microcolony formation; Rippled; Small polyps; Thick; W: Halo formation on top, microlonies on bottom.

The subject of assay [3] is microorganisms (e.g., bacteria, yeasts, fungi). The assay is described as follows: Targeting peptide binding to target microorganisms (Table 3). The settings on record: microorganism(s) the targeting peptide binds, preferably 1x PBS.
The subject of assay [4] is S. epidermidis. The assay is described as follows: Kill or inhibit growth/proliferation; morphology, biofilm and growth disruption (Tables 5, 6). Note: test concentration or dose not given here. The format is cell-based, Staphylococcus epidermidis. Also on record: key: A: Peptide aggregates; B: Less hyphal formation; Clumps; Diffuse clumps and small polyps; F: Diffuse growth; H: Thin; I: Growth inhibition; Microcolony formation; Rippled; Small polyps; Thick; W: Halo formation on top, microlonies on bottom.

Assay [5] relates to E. faecalis. The assay is described as above. Type of assay: cell-based, Enterococcus faecalis. Further details: key: A: Peptide aggregates; B: Less hyphal formation; Clumps; Diffuse clumps and small polyps; F: Diffuse growth; H: Thin; I: Growth inhibition; Microcolony formation; Rippled; Small polyps; Thick; W: Halo formation on top, microlonies on bottom.
In assay [6] the test system is E. coli. The assay is described as above. The format is cell-based, Escherichia coli. Also on record: key: A: Peptide aggregates; B: Less hyphal formation; Clumps; Diffuse clumps and small polyps; F: Diffuse growth; H: Thin; I: Growth inhibition; Microcolony formation; Rippled; Small polyps; Thick; W: Halo formation on top, microlonies on bottom.
In assay [7] the test system is S. pneumoniae. Described as above. The format is cell-based, Streptococcus pneumoniae. Further details: key: A: Peptide aggregates; B: Less hyphal formation; Clumps; Diffuse clumps and small polyps; F: Diffuse growth; H: Thin; I: Growth inhibition; Microcolony formation; Rippled; Small polyps; Thick; W: Halo formation on top, microlonies on bottom. Note: test concentration or dose not given here.
For assay [8], the system named is MRSA. The assay is described as above. Further details: key: A: Peptide aggregates; B: Less hyphal formation; Clumps; Diffuse clumps and small polyps; F: Diffuse growth; H: Thin; I: Growth inhibition; Microcolony formation; Rippled; Small polyps; Thick; W: Halo formation on top, microlonies on bottom. The format is cell-based, Methicillin-resistant Staphylococcus aureus. Note: test concentration or dose not given here.

Setting [9] is: binding in aqueous buffers depending on peptide solubility.
Setting [10] is: peptide binding conducted in aqueous buffers varied by peptide solubility.

Entries after “also recorded” stand apart in the source; their conditions may differ.
Throughout, for Organism, effect: test concentration or dose not given here.

As for “LMFFSENMDKRDTLSGKFRYFAGSKVIKLMNWLSENGK [PF-226]”, the Activities result in assay [1] is recorded as “G B”. The “Organism, effect” value in assay [2] is “M. luteus (T)”; in assay [4] it was “S. epidermidis (C)”. Further, in assay [3] (setting [9]), the “Target(s)” value is “A. baumannii”.
Turning to “PF-125: peptide having multiple activities (YVVGALVILAVAGLIYSMLRKA; Peptide with targeting and/or antimicrobial activity)”, the Activities result in assay [1] was “G B”. The “Organism, effect” value in assay [2] was “M. luteus (C)”; in assay [4], “S. epidermidis (D)”.
Consider “PF-212: peptide having multiple activities (NDSKASN; Peptide with targeting and/or antimicrobial activity)”, for which, in assay [1], the Activities entry is “G B”. The “Organism, effect” value in assay [2] is “M. luteus (M)”. Moreover, the “Target(s)” value in assay [3] (setting [9]) is “M. luteus; also recorded: P. aeruginosa”.
On the same counts, the results for “PF-215: peptide having multiple activities (ELKITNYNVNTVLYRYYKWGNDLCE; Peptide with targeting and/or antimicrobial activity)” are “G B”, “M. luteus (T)” and “S. epidermidis; also recorded: M. luteus; also recorded: P. aeruginosa; also recorded: A. baumannii”.
With “PF-224: peptide having multiple activities (DYFYITLSQKNTF; Peptide with targeting and/or antimicrobial activity)”, the Activities entry in assay [1] is “G B”. Also, the “Organism, effect” value in assay [2] is listed as “M. luteus (T)”. Further, in assay [3] (setting [9]), the “Target(s)” value was “S. epidermidis; also recorded: P. aeruginosa; also recorded: A. baumannii”.
In the case of “PF-234: peptide having multiple activities (RTPYILRS; Peptide with targeting and/or antimicrobial activity)”, the Activities entry in assay [1] is “G B”. For the same substance, the “Organism, effect” value in assay [2] is on record as “M. luteus (T)”. In addition, the “Target(s)” value in assay [3] (setting [9]) is “S. epidermidis; also recorded: M. luteus”.
For “PF-235: peptide having multiple activities (GIPFSKPHKRQVNYMKSDVLAYIEQNKMAHTA; Peptide with targeting and/or antimicrobial activity)”, in assay [1], the Activities entry is reported as “G B”. In assay [2], the “Organism, effect” value is reported as “M. luteus (T)”. Also, the “Target(s)” value in assay [3] (setting [9]) is listed as “S. epidermidis; also recorded: M. luteus”.
As for “PF-249: peptide having multiple activities (INSRYKISF; Peptide with targeting and/or antimicrobial activity)”, in assay [1], the Activities result was “G B”. Besides, the “Organism, effect” value in assay [2] was “M. luteus (R)”. The “Target(s)” value in assay [3] (setting [9]) is listed as “S. epidermidis; also recorded: M. luteus”.
For the substance “PF-250 (SEDIFGRLANEKANGLEELRKIRLKQ; Peptide with targeting and/or antimicrobial activity)”, the “Organism, effect” value in assay [2] was “M. luteus (T)”.
Consider “PF-255: peptide having multiple activities (DHKINESQHNPFRSDSNKQNVDFF; Peptide with targeting and/or antimicrobial activity)”, for which the Activities result in assay [1] is “G B”. Besides, the “Organism, effect” value in assay [2] is recorded as “M. luteus (M)”. Moreover, in assay [3] (setting [9]), the “Target(s)” value is “P. aeruginosa”.
“PF-264 (MQSLSNRQSLIASYILMGIFLSFGYPPASLSKFFCRLSHL; Peptide with targeting and/or antimicrobial activity)”: the “Organism, effect” value in assay [2] is on record as “M. luteus (H)”.
Regarding “PF-270: peptide having multiple activities (MYLTPYAWIAVGSIFAFSVTTIKIGDQNDEKQKSHKNDVHKR; Peptide with targeting and/or antimicrobial activity)”, the Activities result in assay [1] was “G B”. The “Organism, effect” value in assay [2] was “M. luteus (H)”. Moreover, the “Target(s)” value in assay [3] (setting [9]) is reported as “S. epidermidis; also recorded: M. luteus; also recorded: P. aeruginosa”.
On the same counts, the results for “PF-271: peptide having multiple activities (AAQPQTTSP; Peptide with targeting and/or antimicrobial activity)” are “G B”, “M. luteus (T)” and “S. epidermidis; also recorded: M. luteus; also recorded: P. aeruginosa; also recorded: A. baumannii”.
Consider “PF-274 (SIQEAEKIIKNDPFYIHDVADYDFMWFEPSKSLEEIKEFV; Peptide with targeting and/or antimicrobial activity)”, for which the “Organism, effect” value in assay [2] is on record as “M. luteus (M)”.
As for “PF-276: peptide having multiple activities (LDLALSTNSLNLEGFSF; Peptide with targeting and/or antimicrobial activity)”, in assay [1], the Activities entry is “G B”. For the same substance, the “Organism, effect” value in assay [2] is recorded as “M. luteus (M)”. Moreover, the “Target(s)” value in assay [3] (setting [9]) is given as “S. epidermidis”.
For the substance “PF-444: peptide having multiple activities (chain 1 MAAKLWEEGKMVYASSASMTKRLKLAMSKV; chain 2 MAAKLWEEGKMVYASSASMTKRLKLAMSKV; Peptide with targeting and/or antimicrobial activity)”, the Activities result in assay [1] is “G B”. Besides, the “Organism, effect” value in assay [5] was “E. faecalis (C)”; in assay [4], “S. epidermidis (C)”; in assay [6], “E. coli (R)”; in assay [7], “S. pneumoniae (R)”; in assay [8], “MRSA (C)”. Besides, the “Target(s)” value in assay [3] (setting [10]) was “M. luteus; also recorded: C. albicans; also recorded: S. pneumoniae; also recorded: C. jeikeium”.
Take “PF-451: peptide having multiple activities (chain 1 MVNYIIGSYMLYREQNNNEALRKFDITLAM; chain 2 MVNYIIGSYMLYREQNNNEALRKFDITLAM; Peptide with targeting and/or antimicrobial activity)”: the Activities entry in assay [1] was “G B”. Also, the “Organism, effect” value was “E. faecalis (C)” in assay [5]; “S. epidermidis (C)” in assay [4]; “E. coli (R)” in assay [6]; “S. pneumoniae (C)” in assay [7]; “MRSA (C)” in assay [8].
For “PF-452: peptide having multiple activities (chain 1 MNNWIKVAQISVTVINEVIDIMKEKQNGGK; chain 2 MNNWIKVAQISVTVINEVIDIMKEKQNGGK; Peptide with targeting and/or antimicrobial activity)”, the Activities result in assay [1] is recorded as “G B”. The “Organism, effect” value in assay [5] is given as “E. faecalis (C)”; in assay [4] it was “S. epidermidis (C)”; in assay [6] it was “E. coli (C)”; in assay [7], “S. pneumoniae (R)”; in assay [8] it was “MRSA (C)”. Further, in assay [3] (setting [10]), the “Target(s)” value was “M. luteus; also recorded: P. aeruginosa; also recorded: C. albicans; also recorded: S. pneumoniae; also recorded: E. faecalis; also recorded: C. jeikeium; also recorded: M. smegmatis”.
Take “PF-460: peptide having multiple activities (chain 1 MEHVLPFQNTPPNIVIIYKDFTHLKSITFS; chain 2 MEHVLPFQNTPPNIVIIYKDFTHLKSITFS; Peptide with targeting and/or antimicrobial activity)”: in assay [1], the Activities entry is given as “G B”. Besides, the “Organism, effect” value in assay [5] is on record as “E. faecalis (C)”; in assay [4], “S. epidermidis (C)”; in assay [6], “E. coli (H)”; in assay [7], “S. pneumoniae (R)”; in assay [8] it was “MRSA (C)”.
Take “PF-518: peptide having multiple activities (chain 1 SFYSKYSRYIDNLAGAIFLFF; chain 2 SFYSKYSRYIDNLAGAIFLFF; Peptide with targeting and/or antimicrobial activity)”: in assay [1], the Activities entry is on record as “G B”. Also, the “Organism, effect” value in assay [5] is “E. faecalis (C)”; in assay [4], “S. epidermidis (C)”; in assay [6], “E. coli (R)”; in assay [7] it was “S. pneumoniae (M)”; in assay [8], “MRSA (C)”. In assay [3] (setting [10]), the “Target(s)” value is “S. epidermidis and E. coli and P. aeruginosa and C. albicans and MRSA and S. pneumoniae and E. faecalis”.
“VWENRKKYLENEIERHNVFLKLGQEVIKGLNALASRGR [PF-257]”: in assay [1], the Activities result is “G B”. Moreover, the “Organism, effect” value in assay [2] is listed as “M. luteus (R)”. For the same substance, the “Target(s)” value in assay [3] (setting [9]) is listed as “S. epidermidis”.
